Laboratory results reported in patent US10744214B2, “Method of diagnosing and/or monitoring therapy of atherosclerosis” (STC.UNM, priority 2015, dated 2020).
Entries after “also recorded” stand apart in the source; their conditions may differ.

How the values were obtained:
neutrophils and PBMCs = experiment: Radiolabeled DANBIRT uptake in isolated blood components after ozone exposure; assay type: cell-based, rats; conditions: rat blood collected 24 hours post-exposure, 1 hour incubation
Description: • 6 week old ApoE KO C57 black male • SPECT imaging 3 hrs and 24 hrs post tail vein Injection of ˜700 uCi (˜25.9 Mbq) of ^111In-DANBIRT • Autoradiography was performed 24 hrs PI of ^111In-DANBIRT after the last imaging time point, • We focused on 3 areas for our region of interest analysis: Aortic arch, carotids and thymus: normalized to muscle. • Whole blood incubation with ^68Ga-DANBIRT and subsequent neutrophil and PBMC isolation were performed from rat blood from animals exposed to filtered air and ozone. • 2 groups: Filtered air (n=3) and ozone (n=3) • Whole blood was collected 24 hrs post exposure • Whole Blood Separation was performed after incubation with ^68Ga-DANBIRT, obtaining 4 samples: serum, red blood cells, neutrophils and peripheral blood mononucleated cells. Staining was performed for specific morphology interpretation and smear cell line purity assessment. Results
Rats were exposed to either filtered air (FA) or ozone (1.0 ppm) for 4 hours using an OREC silent are discharge ozone generator (Osmonics, Phoenix, Ariz.); ozone concentrations were continuously monitored over the course of 4 hours. Exposures took place in a chamber without bedding to minimize ozone scrubbing and to ensure consistent nasal exposures. Whole blood was collected 24 hours post-exposure. Histopaque two-step gradient (Sigma Aldrich, 10771) neutrophil isolation protocol was performed following manufacturer's methods; modified protocol was included for PBMC isolation. Hetastarch at 5% (B. Braun, L6511) was added to whole blood before running isolation protocols. Cell samples were washed and suspended in 1% Gelatin in PBS at a pH of 7.2. Final volumes of neutrophil and PBMC samples were increased to 1 mL. Final samples were identified as serum, RBC, neutrophils and PBMCs and incubated for 1 hour with [^68Ga] Ga-DANBIRT (specific activity of 625 mCi/pM). […] Cell morphology, differentials and sample purity were assessed using a light microscope at 40× objective (Olympus BX51).

LFA-1 [1] = biological target: T1, LFA-1 (Mus musculus, UniProt P24063); experiment: 3 hr [111In] In-DANBIRT SPECT/CT imaging of ApoE-/- mice; assay type: in vivo; conditions: HFD fed mice, 3 hr post injection, baseline, 4th and 8th week, normalized to muscle
T1 construct: presence of inflammatory LFA-1 in immune and cardiovascular tissues; from tissue; host or cells: living or euthanized male ApoE-/- C57BL/6 mice: heart, aortic arch, descending aorta, carotids, thymus
Description: (§1) Methods: 6 week ApoE […] mice were fed either normal or high fat chow (n=8 per group) for 8 weeks to induce vascular atherosclerotic lesions. SPECT/CT imaging was performed 3-hrs post injection of ˜700 uCi of ^111In-DANBIRT at baseline, 4 weeks and 8 weeks. Whole body Autoradiography was performed 24-hrs post injection after 8-week time point. Image processing and analysis was performed by region of interest (ROI) determination in relationship to voxel and volume, uptake quantification was normalized to muscle uptake. Blood partition assays were conducted to ascertain specific binding components. […]
Animals were imaged at […] following 700 μCi via tail vein injection of [^111In] […] Regions of Interests (ROI) were determined and drawn using the best quality image phantom from reconstructed CT (Table 3) to determine muscle, adipose, heart, aortic arch and descending aorta organs using VivoQuant 2.00 (inviCRO, Boston, Mass.). […] Concentration and sum per volume normalized to muscle was determined to identify accurate measurements and eliminate ROI signal interference from adjacent tissues. […]

[2] = In vitro stability of radiolabeled DANBIRT in fetal bovine serum and 0.9% saline; assay type: in vitro ADME; conditions: FBS and 0.9% saline, 4 hours
Description: Incubation of [^68Ga] Ga-DANBIRT with Fetal Bovine Serum (FBS) (Atlanta Biologicals, S11150) and 0.9% saline solution was performed in vitro stability analysis. Triplicate samples were drawn from radiolabeled stock and kept incubated at 37° C. until time of analysis. ITLC was performed once at each time point and HPLC assessment was performed in triplicates at baseline, 5, 10, 30, 60, 120 and 240 minutes of incubation. The mean incorporation yield and radiochemical purity were calculated from sample results. Following methods by Poria et al methods were modified for use in a Ultra-Performance Liquid Chromatography (UPLC) using an Acquity UPLC BEH C-18 1.7 μm column (2.1×50 mm) (Waters Corporation, 186002350). UPLC gradient with flow rate is described in FIG. 14.

[3] = Ex vivo biodistribution of [111In] In-DANBIRT post tail vein injection in ApoE-/- mice
Description: • Animals were imaged for ˜75 minutes 3 hrs post tail vein injection of ˜700 uCi (˜25.9 Mbq) of ^111In-DANBIRT • Atorvastatin was administered in the drinking water and PPAR-Delta agonist (GW1516) was incorporated into food pellets by diet manufacturing company. • Organ and serum collection for bio distribution and lipid levels and sub particles size analysis was performed after last imaging time point
Upon completion of 8 weeks on normal or HFD, mice were euthanized 3 hours post-injection of 700 μCi of [^111In] In-DANBIRT via tail vein; organs were harvested for weight assessment and [^111In] In-DANBIRT uptake using an Automatic Wizard 2 Gamma counter (Perkin Elmer). Organs collected were: tail, whole blood, aorta (from aortic arch to thoracic aorta), carotids (front aortic arch to bifurcation), heart, liver, muscle and adipose tissue. Whole blood was collected with direct cardiac puncture of right ventricle using a 24-gauge needle of right ventricle with a heparinized syringe and centrifuged for 15 minutes at 1000 g at 4° C. Serum, erythrocytes (RBC) and leukocytes (WBC) containing isolated samples were collected and measured for [^111In] In-DANBIRT uptake using a gamma counter. Uptake was decay-corrected and percent-injected activity per gram (% IA/gr) was determined for each mouse.

LFA-1 receptor [4] = biological target: T2, LFA-1 receptor (Rattus norvegicus, UniProt F1LP44); experiment: Radioisotopic dilution / competitive leukocyte binding assay; conditions: compared to neutrophil sample, p<0.05
T2 construct: endogenous in cells; host or cells: neutrophils and PBMCs from whole blood of male Sprague Dawley rats
T2 sequence (F1LP44 24-1161): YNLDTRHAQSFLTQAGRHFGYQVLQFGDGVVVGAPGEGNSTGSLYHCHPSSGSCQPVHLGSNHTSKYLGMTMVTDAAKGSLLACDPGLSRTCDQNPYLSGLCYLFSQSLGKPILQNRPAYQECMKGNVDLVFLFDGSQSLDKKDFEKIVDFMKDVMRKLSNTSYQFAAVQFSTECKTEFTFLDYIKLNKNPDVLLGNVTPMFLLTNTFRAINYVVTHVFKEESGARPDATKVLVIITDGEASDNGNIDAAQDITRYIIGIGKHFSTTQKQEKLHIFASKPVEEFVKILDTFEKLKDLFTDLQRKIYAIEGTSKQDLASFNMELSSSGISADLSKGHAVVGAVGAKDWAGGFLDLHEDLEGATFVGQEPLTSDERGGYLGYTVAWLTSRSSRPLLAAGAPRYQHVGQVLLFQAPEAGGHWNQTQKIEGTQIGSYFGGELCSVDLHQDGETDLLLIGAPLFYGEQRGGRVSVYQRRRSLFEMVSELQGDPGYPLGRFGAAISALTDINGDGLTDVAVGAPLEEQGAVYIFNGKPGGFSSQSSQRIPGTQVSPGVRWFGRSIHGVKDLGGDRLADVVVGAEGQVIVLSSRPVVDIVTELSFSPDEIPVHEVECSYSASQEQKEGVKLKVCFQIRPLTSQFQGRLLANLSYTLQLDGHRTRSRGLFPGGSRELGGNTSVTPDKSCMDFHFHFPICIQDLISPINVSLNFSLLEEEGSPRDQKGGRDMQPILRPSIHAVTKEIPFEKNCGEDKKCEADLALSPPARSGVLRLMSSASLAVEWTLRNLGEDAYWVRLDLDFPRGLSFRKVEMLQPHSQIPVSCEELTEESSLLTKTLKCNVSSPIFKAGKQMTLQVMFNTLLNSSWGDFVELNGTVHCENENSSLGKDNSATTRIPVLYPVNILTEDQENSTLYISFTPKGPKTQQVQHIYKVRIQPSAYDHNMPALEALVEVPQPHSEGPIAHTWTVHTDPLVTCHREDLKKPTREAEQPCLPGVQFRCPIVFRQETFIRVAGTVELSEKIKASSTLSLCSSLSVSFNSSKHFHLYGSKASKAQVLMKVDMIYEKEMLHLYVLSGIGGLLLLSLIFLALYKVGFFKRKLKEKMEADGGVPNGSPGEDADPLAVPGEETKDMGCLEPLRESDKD
Description: (§2) Radioisotopic dilution methods were performed with log-fold serial dilutions at concentrations of 1:1, 1:10, 1:100 and 1:1000 radiolabeled DANBIRT. Rat whole blood was collected and incubated for 10 minutes with [^111In] In-DANBIRT. Leukocyte isolation was performed for neutrophil and PBMC separations post-incubation with radiolabeled DANBIRT (specific activity 625 mCi/pM). Cytospin 2 (Shandon 2,59900002) with double-funnel and white filter (Simport, 930941126) was used for clustered cell differentials identification methods. Cytospin samples were spread in Superfrost Plus slides (VWR, 48311-703) and fixed with […]. Wright-Giemsa horizontal staining protocol was performed according to manufacturer's package insert instructions (Sigma Aldrich, SLBN4704V). Cell morphology, differentials and sample purity were assessed using a light microscope at 40× objective (Olympus BX51).

LFA-1 receptor [5] = experiment: as above; design: species or system Rat; conditions: serum, RBC and PBMC samples
Description: as §2

LFA-1 [6] = biological target: T1, LFA-1; experiment: 24 hr [111In] In-DANBIRT 3D autoradiography of ApoE-/- mice; assay type: in vivo
Description: as §1
Mice were euthanized by CO2 method after 8 weeks of dietary assessment. […] Autoradiography and white light files were compiled and analyzed using VivoQuant 2.00 (inviCRO, Boston, Mass.). Determined ROI were drawn using the best quality image phantom from reconstructed CT (FIG. 14, Table 3) for the thymus, muscle, carotids and aortic arch. […]

[7] = 8 weeks of diet, 3 hours post-injection, p<0.05

T1 sequence (P24063 24-1162): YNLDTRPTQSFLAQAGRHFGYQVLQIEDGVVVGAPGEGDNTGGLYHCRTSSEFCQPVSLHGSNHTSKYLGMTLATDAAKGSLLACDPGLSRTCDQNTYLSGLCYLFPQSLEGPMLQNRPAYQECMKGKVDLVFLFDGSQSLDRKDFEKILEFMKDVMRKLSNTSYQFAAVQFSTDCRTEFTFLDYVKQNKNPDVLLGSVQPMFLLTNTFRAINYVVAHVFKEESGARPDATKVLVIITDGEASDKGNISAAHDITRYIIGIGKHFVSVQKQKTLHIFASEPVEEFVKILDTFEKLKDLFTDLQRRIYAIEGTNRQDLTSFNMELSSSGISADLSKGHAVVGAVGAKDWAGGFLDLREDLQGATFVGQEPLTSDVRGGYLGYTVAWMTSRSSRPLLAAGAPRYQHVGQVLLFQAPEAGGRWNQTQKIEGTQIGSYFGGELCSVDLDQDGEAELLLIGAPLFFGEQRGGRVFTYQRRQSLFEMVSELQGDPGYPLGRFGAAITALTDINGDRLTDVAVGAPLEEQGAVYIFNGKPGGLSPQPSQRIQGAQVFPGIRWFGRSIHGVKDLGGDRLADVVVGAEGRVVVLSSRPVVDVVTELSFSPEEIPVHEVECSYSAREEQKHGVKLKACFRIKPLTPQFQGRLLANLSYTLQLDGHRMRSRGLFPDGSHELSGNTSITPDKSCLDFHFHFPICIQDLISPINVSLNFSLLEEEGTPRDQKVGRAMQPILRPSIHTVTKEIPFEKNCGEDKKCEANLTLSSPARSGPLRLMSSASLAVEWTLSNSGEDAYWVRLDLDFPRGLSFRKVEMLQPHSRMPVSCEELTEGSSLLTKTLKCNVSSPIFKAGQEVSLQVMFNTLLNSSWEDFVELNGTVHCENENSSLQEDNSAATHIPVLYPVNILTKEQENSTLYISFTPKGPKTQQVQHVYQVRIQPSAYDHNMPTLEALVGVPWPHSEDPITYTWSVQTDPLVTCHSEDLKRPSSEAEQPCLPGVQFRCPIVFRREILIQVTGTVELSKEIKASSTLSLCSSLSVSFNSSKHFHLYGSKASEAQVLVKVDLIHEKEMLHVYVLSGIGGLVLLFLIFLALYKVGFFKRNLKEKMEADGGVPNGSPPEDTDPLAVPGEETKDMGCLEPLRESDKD
T1 sequence (P11835 24-771 partner): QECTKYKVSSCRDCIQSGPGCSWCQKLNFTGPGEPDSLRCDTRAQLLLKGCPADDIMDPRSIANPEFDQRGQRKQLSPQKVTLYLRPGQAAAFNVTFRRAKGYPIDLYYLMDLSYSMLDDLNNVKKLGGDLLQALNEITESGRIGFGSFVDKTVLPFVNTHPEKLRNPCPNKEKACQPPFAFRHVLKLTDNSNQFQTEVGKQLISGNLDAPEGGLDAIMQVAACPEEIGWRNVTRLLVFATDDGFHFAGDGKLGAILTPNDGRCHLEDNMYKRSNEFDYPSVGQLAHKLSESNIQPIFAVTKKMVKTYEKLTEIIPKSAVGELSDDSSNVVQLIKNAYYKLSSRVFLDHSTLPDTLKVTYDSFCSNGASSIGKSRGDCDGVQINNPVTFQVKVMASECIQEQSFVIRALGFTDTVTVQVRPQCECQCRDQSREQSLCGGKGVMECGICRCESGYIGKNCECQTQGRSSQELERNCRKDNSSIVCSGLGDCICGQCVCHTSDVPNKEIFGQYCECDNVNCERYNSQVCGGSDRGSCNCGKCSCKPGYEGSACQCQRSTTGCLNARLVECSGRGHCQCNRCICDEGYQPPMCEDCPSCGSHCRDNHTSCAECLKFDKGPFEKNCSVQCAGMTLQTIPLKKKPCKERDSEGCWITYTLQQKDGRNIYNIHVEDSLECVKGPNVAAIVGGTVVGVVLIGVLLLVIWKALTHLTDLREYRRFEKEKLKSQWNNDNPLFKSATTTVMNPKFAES

Row | SMILES | uptake in PBMCs post-ozone exposure (neutrophils and PBMCs) | uptake in serum post-ozone exposure (neutrophils and PBMCs) | uptake in neutrophils post 4-hour ozone exposure vs filtered air (neutrophils and PBMCs; p=0.008) | uptake in heart, aortic arch and descending aorta ROI (SPECT/CT) (LFA-1 [1]) | uptake in heart, aortic arch and descending aorta ROI (SPECT/CT) (LFA-1 [1]; listed as 111In-DANBIRT) | stability on incubation [2] | uptake in RBC and WBC samples, HFD vs normal diet [3, 7] | uptake in cardiovascular tissues (heart, aorta, carotids), HFD vs normal diet [3, 7] | % IA/gr of tissue, HFD vs normal diet ([3]; 8 weeks of diet, p<0.05) | uptake in adipose tissue and muscle ([3]; 3 hours post-injection) | uptake in serum compared to other blood components ([3]; 3 hours post-injection of 700 μCi) | uptake in liver compared to other tissues ([3]; 3 hours post-injection of 700 μCi, regardless of dietary treatment) | organ bio distribution uptake in liver, serum, aorta and blood components ([3]; Example 2, 1st cohort) | saturation in PBMCs at different dilution concentrations (LFA-1 receptor [4]) | decrease of initial uptake after each log fold dilution concentration (LFA-1 receptor [5]) | uptake in carotids and thymus, concentration per volume normalized to muscle, HFD vs normal diet (LFA-1 [6]; 24 hr post injection after 8 weeks of diet) | uptake in the thymus (LFA-1 [6]; Example 1, autoradiography and SPECT/CT analysis)
1 | C[C@]1(Cc2ccc(Br)cc2)C(=O)N(c2cc(Cl)cc(Cl)c2)C(=O)N1CCCCNC(=O)CN1CCN2CCN3CCN(CC1)CC(=O)[O][68Ga]([O]C(=O)C2)[O]C(=O)C3 [[^68Ga] Ga-DANBIRT] | decreased uptake; also recorded: decrease | decrease | increased uptake | – | – | – | – | – | – | – | – | – | – | – | – | – | –
2 | C[C@]1(Cc2ccc(Br)cc2)C(=O)N(c2cc(Cl)cc(Cl)c2)C(=O)N1CCCCNC(=O)CN1CCN2CCN3CCN(CC1)CC(=O)[O][111In]([O]C(=O)C2)[O]C(=O)C3 [[^111In] In-DANBIRT] | – | – | – | longitudinal increased uptake; also recorded: Increased longitudinal uptake | longitudinal increase in uptake | maintained throughout 4 hours of incubation | increased uptake | higher uptake | increase | low uptake | high uptake | high uptake | significant uptake | did not evidence any saturation levels | 50% | increase; also recorded: Increased uptake | Increased uptake
